Molecules are shown by their SMILES. Activity calls are given as the source filed them.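 How the source made its calls: active means compounds giving half or more protection of infected cells from virus-caused growth loss, again on retest; inactive means the rest.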 Where a SMILES comes first, the peptide text is derived from it. The star is where a group is joined. Fmoc = O=C(OCC1c2ccccc2-c2ccccc21)*; Boc = CC(C)(C)OC(=O)*

The subject of this assay is CEM cells HIV-1 protection, formazan growth assay. Description: NCI AIDS Antiviral Assay. The following applies: for IC50: measured here: growth of uninfected CEM cells. Put shortly: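 Screen of anti-HIV-1 activity in human CEM cells using a formazan-based growth measurement at five drug concentrations. Hits with 50% or greater protection were repeated, and confirmation required reproducible complete protection.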

As to `Nc1c(C(=O)N/N=C/c2ccc(Cl)cc2)sc(=S)n1-c1ccccc1`, the EC50 was more than 3.72 µM and the IC50 was more than 3.72 µM. On to `O=C(O)Cc1ccccc1CCc1ccccc1Cl`, for which the EC50 was more than 479 µM and the IC50 was found to be 251 µM. Taken in the same sequence, the figures for `O=P(O)(O)CN1CCNCCN(CP(=O)(O)O)CC1` were more than 100 µM and 70.8 µM. Taken in the same sequence, the figures for `COc1ccc(NS(=O)C2CCCCC2)cc1` (stereo unspecified) were more than 200 µM and more than 200 µM. In the case of `CCOc1ccc2nc(NC(=O)C(=O)C(C#N)CC(C)(C)C=O)sc2c1` (stereo unspecified), the EC50 is more than 479 µM and the IC50 is 263 µM. On the same counts, the results for `O=C(O)[C@@H]1CSC(C(O)CO)N1` (stereo partly specified) are more than 200 µM and more than 200 µM. Turning to `CCN(CC)c1ccc(NC(=S)NN)cc1`, the EC50 was more than 200 µM and the IC50 amounted to 11.2 µM. Consider `C=[CH][Sn]([CH]=C)([S]c1cccc2cccnc12)[S]c1cccc2cccnc12`, for which the outcome was inactive. In the case of `CC1=Nc2cc(C(=O)c3ccccc3)ccc2N=C(c2c(O)c3c(ccc4ccccc43)oc2=O)C1`, the EC50 was more than 20 µM and the IC50 was more than 20 µM. As for `CS(=O)(=O)c1cc([N+](=O)[O-])c(C(N)=O)cc1N(CCCl)CCCl`, the EC50 was more than 200 µM and the IC50 was more than 200 µM. Regarding `NCCCCN(CCCN)C(=O)c1ccccc1`, the result was inactive. On to `CN(C)c1ccc(Cc2cc3c(O)ccc(O)c3cc(Cc3ccc(N(C)C)cc3)c2=O)cc1`, for which the EC50 was more than 200 µM and the IC50 amounted to 3.16 µM.

`O=C1CCC(=O)c2ccccc2N1`: the EC50 is more than 1020 µM and the IC50 was more than 1020 µM. `CC(=O)OC[C@]1(O)CC[C@@]23CC1C[C@@H]2CCC1C(C)(C)CCC[C@@]13C` (stereo partly specified): the EC50 is more than 20.9 µM and the IC50 is more than 20.9 µM. Regarding `C1=C2/CC[C@H](Sc3ccccc3)C2C2(CCCCC/1)OCCO2` (stereo partly specified), the EC50 was more than 200 µM and the IC50 worked out at 38.9 µM.

`COc1ccccc1N1C(=O)/C(=C\c2cc(OC)c(OC)c(OC)c2)SC1c1ccccc1` (stereo unspecified): the EC50 was more than 200 µM and the IC50 was determined as 39.8 µM. For `C=CC1(c2ccccc2Cl)N/C(=C/OCC)CO1` (stereo unspecified), the EC50 is more than 26.9 µM and the IC50 was more than 26.9 µM.

`COC(=O)c1cc2c(s1)C(=O)c1ccccc1-2`: the EC50 is more than 2.24 µM and the IC50 was more than 2.24 µM. In the case of `O=C(O)C(CS)N=c1c2ccccc2n(O)c2ccccc12` (stereo unspecified), the result was inactive. The same measure, in the same setting: the entry for `CC(=Nc1ccc(Cl)cc1)c1ccncc1` is “inactive”. `CN1CCN(C)C(=O)CSSCC1=O`: the EC50 was more than 151 µM and the IC50 was more than 151 µM.

Turning to `N#Cc1cccc(C[P+](c2ccccc2)(c2ccccc2)c2ccccc2)c1`, the EC50 is more than 200 µM and the IC50 came to 135 µM. Turning to `O=C(NCCNCCCNC(=O)c1cc(-c2ccccc2)nc2ccccc12)c1cccc(OCc2ccccc2)c1OCc1ccccc1`, the EC50 is more than 200 µM and the IC50 came to 1.1 µM. On the same counts, the results for `O=[N+]([O-])c1cccc2nc3ccccc3c(NCCc3ccccn3)c12` are more than 2 µM and 0.0631 µM. Taken in the same sequence, the figures for `NC(=O)c1c(Cl)nc2n1CCS2` were more than 200 µM and more than 200 µM.

For `CSCCCNC(=O)c1csc(-c2csc(CCN)n2)n1`, the EC50 was more than 661 µM and the IC50 stood at 85.1 µM. On the same counts, the results for `COc1ccc(CCC2c3cc(OC)c(OC)cc3CCN2C)cc1OC` (stereo unspecified) are more than 676 µM and 240 µM.

On to `NC(=O)C1CCCN1C(=O)N(CCCl)N=O` (stereo unspecified), for which the EC50 was more than 200 µM and the IC50 was more than 200 µM. As to `C/C(=N\NC(N)=O)C(CN(C)C)C(c1ccccc1)c1c(O)c2ccccc2oc1=O` (stereo unspecified), the EC50 was more than 91.2 µM and the half-inhibitory concentration (IC50) was determined as 66.1 µM. For `C[N+](C)(CCCCCC[N+](C)(C)C1c2ccccc2-c2ccccc21)C1c2ccccc2-c2ccccc21`, the EC50 was more than 200 µM and the IC50 turned out to be 182 µM. On the same counts, the results for `CSc1nc(C(N)=O)c(N)c(=O)[nH]1` are more than 468 µM and 126 µM. `COc1cnc(NS(=O)(=O)c2ccc(N)cc2)nc1`: the EC50 is more than 200 µM and the IC50 is more than 200 µM.

Consider `CC(=Nc1ccccc1C(=O)[O-])c1c([O-])ccc2c(C)cc(=O)oc12.[Cu+2].[OH3+]`, for which the EC50 is more than 1.32 µM and the IC50 is more than 1.32 µM. Take `Cc1c2ccncc2cc2c1sc1ccncc12`: the EC50 is more than 39.8 µM and the IC50 was found to be 0.589 µM.

For `CCN(CC)C(=O)Cn1c(-c2ccccc2)cc2ccccc21`, the EC50 is more than 200 µM and the IC50 is 40.7 µM. Consider `CCOC(=O)C/C(N)=C(\C#N)C(=O)OCC`, for which the result was inactive. Turning to `CN(C)C[C@H]1CC[C@@H](CN(C)C)C1=O`, the result was inactive.

On to `OC1COc2ccc(Cl)cc2CSC1` (stereo unspecified), for which the EC50 was more than 200 µM and the IC50 is 166 µM.

Consider `COc1ccc(OC)c(NC(=O)C2=C(C)NC(C)=C(C(=O)Nc3cc(OC)ccc3OC)C2c2ccccc2)c1`, for which the outcome was inactive. As for `CCCNc1nc2c(c(=O)n1-c1ccccc1)C=C(C(=O)OC)CCN2S(=O)(=O)c1ccc(C)cc1`, the EC50 was more than 14.1 µM and the IC50 is more than 14.1 µM. Consider `COc1ccc2oc(=O)c3c(c2c1C)OC(C)(C)C=C3`, for which the EC50 is more than 200 µM and the IC50 was more than 100 µM. On the same counts, the results for `COc1cc2oc3c(C)c(=O)cc4oc(-c5ccccc5)cc(c2c2c1CCC(c1ccccc1)O2)c43` (stereo unspecified) are more than 4.07 µM and more than 4.07 µM. Taken in the same sequence, the figures for `CC(=O)OC1CC[C@@]2(C)C(C1)CC(OC(C)=O)[C@@H]1C2CC(OC(C)=O)[C@]2(C)C(C(C)CC=C(c3ccc(Cl)cc3)c3ccc(Cl)cc3)CCC12` (stereo partly specified) were more than 200 µM and 57.5 µM. On the same counts, the results for `O=C1c2ccccc2CCCC12OC2c1cccnc1` (stereo unspecified) are more than 257 µM and 151 µM. As to `Cn1cnc(/C=C/C#N)c1`, the EC50 is more than 200 µM and the IC50 is more than 200 µM.

For `CC1(C)OC(COCCOCCCCCO)C(COCCOCCCCCO)O1` (stereo unspecified), the outcome was inactive. As for `COc1ccc2ccccc2c1C1=NC(C)(C)CO1`, the EC50 is more than 977 µM and the IC50 was found to be 479 µM. As to `O=C(O)c1ccc(CSc2ccc([N+](=O)[O-])cc2)c([N+](=O)[O-])c1`, the EC50 is more than 204 µM and the IC50 is more than 100 µM. On the same counts, the results for `CC(C)(C)OC(=O)NCCCCC(NC(=O)OCC1c2ccccc2-c2ccccc21)C(=O)N1CCCC1C(=O)NCC(N)=O` (stereo not drawn) (Fmoc-Lys(Boc)-Pro-Gly-NH2; configuration not given here) are 69.2 µM and 91.2 µM.

Consider `N[C@@H](CSSc1ccccc1C(=O)O)C(=O)O`, for which the EC50 is more than 200 µM and the IC50 is more than 200 µM. Take `O=c1ccn(Cc2ccccc2)c(=S)[nH]1`: the EC50 is more than 200 µM and the IC50 is more than 200 µM. As to `CC1(C)CNC[C@@](C)(O)C(=O)[N-]C(C)(C)CNC[C@](C)(O)C(=O)[N-]1.[Ni+2]`, the EC50 was more than 200 µM and the IC50 was 120 µM. Regarding `COC(=O)[C@@]12C=CC(=O)[C@H]3C[C@@H](C(C(C)C)C1)[C@]32OC` (stereo partly specified), the result was inactive. In the case of `CC1(C)C[N+](C)(C)C2(CCCC2)O1`, the EC50 is more than 200 µM and the IC50 was more than 200 µM.

`COC(=O)C(Cc1ccccc1I)C1=CCC2(CC1)OCCO2` (stereo unspecified): the EC50 was more than 200 µM and the IC50 was found to be 49 µM. Consider `COc1ccc(Nc2nc3ccccc3nc2-c2cccs2)cc1`, for which the EC50 was more than 15.5 µM and the IC50 was more than 15.5 µM. In the case of `CCC1=C(C[C@H]2NCCc3cc(OC)c(OC)cc32)C[C@H]2c3cc(OC)c(OC)cc3CCN2C1`, the outcome was inactive. Take `O=c1cc(/C=C/c2ccccc2)c2ccc(O/C(=C\c3ccccc3)c3nc4ccccc4c(=O)o3)cc2o1`: the outcome was inactive. The same measure, in the same setting: to `CCOC(=O)C1Oc2ccc([N+](=O)[O-])cc2C1(C)O` (stereo unspecified) belongs “inactive”. For the compound `N#C/C(=C\NC(=S)Nc1cc(Cl)ccc1Cl)c1nc2ccccc2s1`, the EC50 is more than 100 µM and the IC50 is more than 100 µM. `CC1(C(=O)O)OC12CCCCC2` (stereo unspecified): the EC50 is more than 200 µM and the half-inhibitory concentration (IC50) was more than 200 µM. For `O=S1Nc2c(Cl)cc(Cl)c3c(Cl)cc(Cl)c(c23)N1`, the result was inactive.

Turning to `O=C1C=CC=C/C1=C1\N=C(c2ccccc2OCC(=O)c2ccc(Br)cc2)SS1`, the EC50 is more than 50.1 µM and the IC50 was 19.5 µM. Taken in the same sequence, the figures for `COc1ccc(-c2cc(=O)c3c(C)cc(O)cc3o2)cc1` were 81.3 µM and 115 µM. As to `COC(=O)[C@]1(C)CCC[C@@]2(C)C1CC[C@]13C=C(C(C)C)[C@H](CC21)CC3(Cl)C#N` (stereo partly specified), the EC50 is more than 200 µM and the IC50 was 37.2 µM.

For the compound `N#CC1CC(c2ccccc2)=NC1c1ccccc1` (stereo unspecified), the EC50 was more than 29.5 µM and the IC50 is more than 29.5 µM.

As to `Cc1c2c(n3c(nc4ccccc43)c1C#N)N(c1ccc(Cl)cc1)CC2`, the EC50 is more than 50.1 µM and the IC50 was more than 50.1 µM. Regarding `CCN(CC)CSc1nc2ccccc2s1`, the outcome was inactive. With `CCCCSCCC(N)P(=O)(O)O` (stereo unspecified), the EC50 is more than 200 µM and the IC50 is more than 200 µM. Take `Cc1cc2c(=O)c(C)n[nH]c2c(C#N)c1C`: the EC50 is more than 1170 µM and the IC50 worked out at 178 µM. As to `COc1cc2c(oc(=O)c3c4occc4cc(OC)c23)c2cccc(O)c12`, the EC50 is more than 1.45 µM and the IC50 is more than 1.45 µM. `COc1nc(N)c2c3c([nH]c2c1C#N)C(C)(C)c1ccccc1N3C`: the EC50 was more than 30.2 µM and the IC50 came to 29.5 µM. As to `Cn1nc(-c2ccccc2)c(C(=O)/C=C/c2ccc(F)cc2)c(N2CCCC2)c1=O`, the EC50 is 26.3 µM and the IC50 is 36.3 µM. `COc1ccc(N=C2C(=S)N(c3ccc(OC)cc3)/C(=N/S(=O)(=O)c3ccccc3)N2c2ccccc2)cc1`: the EC50 is more than 20 µM and the IC50 stood at 0.389 µM. On to `O=C(N/N=C\c1ccco1)c1ccncc1`, for which the EC50 is more than 200 µM and the IC50 is more than 200 µM.

The record behind these values is PubChem BioAssay AID179 (DTP/NCI, 2004).
